Experimental data as given in patent publication US6653081B2, “Methods for monitoring antiretroviral therapy and guiding therapeutic decision in the treatment of HIV/AIDS” (ViroLogic, Inc., priority 2000, dated 2003).

Experiments:
[1] = system: RTV-006782; assay: Phenotypic susceptibility assay, RTV-006782; type: cell-based, HIV; settings: patient 006782; for decrease in susceptibility: V245T, I135T, E138A
Description: (§1) The resistance test vectors containing a functional luciferase gene cassette were constructed and host cells were transfected with the resistance test vector DNA. The resistant test vectors contained patient-derived reverse transcriptase and protease sequences that were either susceptible or resistant to the antiretroviral agents, such as nucleoside reverse transcriptase inhibitors, (NRTIs) non-nucleoside reverse transcriptase inhibitors […] protease inhibitors. The resistance test vector viral particles produced by transfecting the resistance test vector DNA into host cells, either in the presence or absence of PRIs, were used to infect target host cells grown either in the absence of NRTIs or NNRTIs, or in the presence of increasing concentrations of the drug. The amount of luciferase activity produced in infected target host cells in the presence of varying concentrations of drug was compared to the amount of luciferase produced in infected target host cells in the absence of drug. “Drug resistance” was measured as the amount of drug required to inhibit by 50% the luciferase activity detected in the absence of drug (inhibitory concentration 50%, IC50). The IC50 values were determined by plotting percent drug inhibition vs. log10 drug concentration. Stimulation of viral replication was measured as the percent increase in luciferase activity detected when infection occurs in the presence of drug as compared to in the absence of drug.
(§2) Host cells were seeded in 10-cm-diameter dishes and were transfected several days after plating with resistance test vector plasmid DNA and the envelope expression vector. Transfections were performed using a calcium-phosphate precipitation procedure. The cell culture media containing the DNA precipitate was replaced with fresh medium, from one to 24 hours, after transfection. Cell culture media containing resistance test vector viral particles was harvested one to four days after transfection and was passed through a […] filter before being used to infect target host cells, or being stored at −80° C. HIV capsid protein (p24) levels in the harvested cell culture media were determined by an EIA method as described by the manufacturer (SAIC; Frederick, Md.). Before infection, target cells (293 and 293/T) were plated in cell culture media. Control infections were performed using cell culture media from mock transfections (no DNA) or transfections containing the resistance test vector plasmid DNA without the envelope expression plasmid. One to three or more days after infection, the media was removed and cell lysis buffer (Promega) was added to each well. Cell lysates were assayed for luciferase activity (FIG. 3). The inhibitory effect of the drug was determined using the following equation:
(§3) % luciferase inhibition=1−(RLUluc[drug]÷RLUluc)×100
(§4) where RLUluc [drug] is the Relative Light Unit of luciferase activity in infected cells in the presence of drug, and RLUluc is the Relative Light Unit of luciferase activity in infected cells in the absence of drug. IC50values were obtained from the sigmoidal curves that were generated from the data by plotting the percent inhibition of luciferase activity vs. the log10 drug concentration. The percent luciferase stimulation is the negative of the % inhibition calculated using the formula above.
(§5) A resistance test vector was constructed as described in Example 1 from a virus sample obtained from patient 006782. The prior and current treatment regimens are unknown. Isolation of viral RNA and RT/PCR was used to generate a patient derived segment (PDS) that comprised viral sequences coding for all of PR and aa 1-313 of RT. The PDS were inserted into an indicator gene viral vector to generate a resistance test vector designated RTV-006782. RTV-006782 was then tested in a phenotypic assay to determine accurately and quantitatively the level of susceptibility to a panel of anti-retroviral drugs. […]

[2] = system: RTV-005738; assay: Phenotypic susceptibility assay, RTV-005738; type: cell-based, HIV; settings: patient 005738; for decrease in susceptibility: V245E with multiple other mutations
Description: as §1, §2, §3, §4
as §5, with “005738.” for “006782.”, “RT […].” for “RT.”, “RTV-005738. RTV-005738” for “RTV-006782. RTV-006782”

[3] = system: RTV-309-3/184M; assay: Phenotypic susceptibility assay, RTV-309-3/184M; type: cell-based, HIV; settings: RTV-309-3 with M184V reverted
Description: as §1, §2, §3, §4
A resistance test vector containing all of the mutations present in RTV-309-3 except for the M184V (RTV-309-3/184M) was constructed and tested using the phenotypic assay described earlier. The results were compared to those determined using the parent RTV-309-3. We determined the pattern of phenotypic susceptibility to the NNRTIs, delavirdine, nevirapine and efavirenz, in the reverted vector, RTV-309-3/184M.

[4] = system: Patient-derived resistance test vectors containing mutations at 241 in addition to other NNRTI-resistance mutations; assay: Phenotypic susceptibility assay, patient-derived RTVs with mutations at 241; type: cell-based, HIV; settings: 241 plus e.g. 101, 103, 106, 135, 138, 190
Description: The resistance test vectors containing a functional luciferase gene cassette were constructed and host cells were transfected with the resistance test vector DNA. The resistant test vectors contained patient-derived reverse transcriptase and protease sequences that were either susceptible or resistant to the antiretroviral agents, such as nucleoside reverse transcriptase inhibitors, (NRTIs) non-nucleoside reverse transcriptase inhibitors (NRTIs) and protease inhibitors. […] The IC50 values were determined by plotting percent drug inhibition vs. log10 drug concentration. Stimulation of viral replication was measured as the percent increase in luciferase activity detected when infection occurs in the presence of drug as compared to in the absence of drug.
Host cells were seeded in 10-cm-diameter dishes and were transfected several days after plating with resistance test vector plasmid DNA and the envelope expression vector. […] HIV capsid protein (p24) levels in the harvested cell culture media were determined by an EIA method as described by the manufacturer (SAIC; Frederick, Md.). […] The inhibitory effect of the drug was determined using the following equation: […]

[5] = system: codon 181 mutant HIV-1; settings: cited from earlier work
[6] = system: viral load; assay: Viral load measurements in patient (Example 14); type: in vivo
[7] = target: P236L substitution RT (Human immunodeficiency virus type 1 group M subtype B, UniProt P04585, P823L); settings: cited from earlier work

Structure (SMILES)	drug-dependent stimulation of viral replication [1] [%]	decrease in susceptibility [1] [fold]	drug-dependent stimulation of viral replication [2] [%]	decrease in susceptibility [2] [fold]	drug-dependent stimulation of viral replication [3] [%]	reduction in susceptibility compared to wild type control RTV [3] [fold]	reductions in susceptibility [4] [fold]	susceptibility / activity in the presence of the Y181C mutation [5]	reduction in sensitivity ([5]; Y181C mutation) [fold]	viral load after removal of nevirapine from the regimen ([6]; patient on d4T, nevirapine, nelfinavir, saquinavir, baseline ~1,200,000 copies/ml)	reduction in viral load after removal of nevirapine from the regimen ([6]; same patient) [fold]	reduction of the IC50 [7]
CC(C)Nc1cccnc1N1CCN(C(=O)c2cc3cc(NS(C)(=O)=O)ccc3[nH]2)CC1 [delavirdine]	~70	18.5	~40	63	~50	4						
O=C1Nc2ccc(Cl)cc2[C@@](C#CC2CC2)(C(F)(F)F)O1 [efavirenz]	~25	5	~20	17	~60	5	> 470	retains activity				
Cc1ccnc2c1NC(=O)c1cccnc1N2C1CC1 [nevirapine]	~60	8	~20	> 600	~80	9	> 600		100	< 300,000 copies/ml	4	7- to 10 fold
